Measurements taken from patent publication US20250170248A1, “SMARCA DEGRADERS AND USES THEREOF” (Kymera Therapeutics, Inc., priority 2021, published 2025).

Experiments:
Type in all cases: cell-based
SMARCA2 [1] = biological target: T1, SMARCA2 (Homo sapiens, UniProt P51531); test: SMARCA2 Western blot degradation in MV4-11 cells; parameters: SMARCA2/SMARCA4 protein degradation selectivity in MV4-11 cells; endogenous in cells; host or cells: MV4-11; conditions: for Dmax: MV4-11, MV4-11 cells, read-out: SMARCA2 MSD MV411 degradation 24 h: average Dmax %; for Dmax / DC50 / SMARCA2 MSD MV411 degradation 24 h: average Dmax %: 24 h; for DC50 / Selectivity in MV411 / SMARCA2 MSD MV411 degradation 24 h: average Dmax %: MV4-11 cells; for DC50: read-out: SMARCA2 MSD MV411 degradation 24 h: Mean external-Abs DC50; for Selectivity in MV411: SMARCA2/4 selectivity
T1 sequence (P51531 whole entry): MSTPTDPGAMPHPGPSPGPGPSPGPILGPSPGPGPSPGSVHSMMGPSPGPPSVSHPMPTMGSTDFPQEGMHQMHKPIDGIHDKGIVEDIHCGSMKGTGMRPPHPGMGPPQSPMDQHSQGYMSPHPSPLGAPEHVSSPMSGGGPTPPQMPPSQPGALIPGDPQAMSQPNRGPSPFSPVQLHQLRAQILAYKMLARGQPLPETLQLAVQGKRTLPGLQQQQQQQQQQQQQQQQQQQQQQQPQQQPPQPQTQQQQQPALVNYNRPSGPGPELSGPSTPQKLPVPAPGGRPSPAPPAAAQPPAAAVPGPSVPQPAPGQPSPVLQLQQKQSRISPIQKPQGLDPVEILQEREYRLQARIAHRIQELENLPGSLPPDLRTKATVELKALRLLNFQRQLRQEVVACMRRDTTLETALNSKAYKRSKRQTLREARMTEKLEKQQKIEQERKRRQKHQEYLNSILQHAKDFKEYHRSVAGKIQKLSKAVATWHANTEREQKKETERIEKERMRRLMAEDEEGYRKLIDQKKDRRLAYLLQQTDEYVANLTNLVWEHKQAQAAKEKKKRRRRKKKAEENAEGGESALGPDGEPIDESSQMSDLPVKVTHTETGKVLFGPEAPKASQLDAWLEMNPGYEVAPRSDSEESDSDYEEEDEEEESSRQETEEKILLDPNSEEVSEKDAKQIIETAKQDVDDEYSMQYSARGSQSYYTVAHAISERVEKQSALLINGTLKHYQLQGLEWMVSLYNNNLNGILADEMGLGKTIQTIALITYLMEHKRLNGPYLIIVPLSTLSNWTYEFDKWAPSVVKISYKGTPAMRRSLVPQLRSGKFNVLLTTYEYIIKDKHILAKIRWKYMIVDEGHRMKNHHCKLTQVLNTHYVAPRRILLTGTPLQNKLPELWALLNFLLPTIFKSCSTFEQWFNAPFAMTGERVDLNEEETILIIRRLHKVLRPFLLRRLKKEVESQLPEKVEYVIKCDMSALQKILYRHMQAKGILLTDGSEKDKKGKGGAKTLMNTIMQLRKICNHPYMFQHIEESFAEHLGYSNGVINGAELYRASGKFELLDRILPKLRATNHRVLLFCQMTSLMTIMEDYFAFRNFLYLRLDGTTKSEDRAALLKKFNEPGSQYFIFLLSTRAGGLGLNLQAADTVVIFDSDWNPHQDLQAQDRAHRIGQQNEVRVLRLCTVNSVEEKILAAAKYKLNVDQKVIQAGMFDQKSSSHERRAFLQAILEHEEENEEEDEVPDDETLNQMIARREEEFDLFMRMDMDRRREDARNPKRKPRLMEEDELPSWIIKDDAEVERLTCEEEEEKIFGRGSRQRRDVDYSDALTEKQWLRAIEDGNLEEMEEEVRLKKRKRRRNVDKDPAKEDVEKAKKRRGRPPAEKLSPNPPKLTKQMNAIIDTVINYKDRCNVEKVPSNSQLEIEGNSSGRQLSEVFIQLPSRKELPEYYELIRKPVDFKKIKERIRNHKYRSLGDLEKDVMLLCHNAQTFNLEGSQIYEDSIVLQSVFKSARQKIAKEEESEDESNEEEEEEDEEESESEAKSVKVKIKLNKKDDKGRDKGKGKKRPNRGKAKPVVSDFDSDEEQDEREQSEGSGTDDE

SMARCA4 = biological target: T2, SMARCA4 (Homo sapiens, UniProt P51532); test: SMARCA4 Western blot degradation in MV4-11 cells; conditions: for Dmax: MV4-11, MV4-11 cells, read-out: SMARCA4 MSD MV411 degradation 24 h: average Dmax %; for Dmax / DC50: 24 h; for DC50 / SMARCA4 MSD MV411 degradation 24 h: average Dmax %: MV4-11 cells; for DC50: read-out: SMARCA4 MSD MV411 degradation 24 h: Mean external-Abs DC50
T2 construct: SMARCA2/SMARCA4 protein degradation selectivity in MV4-11 cells; endogenous in cells; host or cells: MV4-11
T2 sequence (P51532 whole entry): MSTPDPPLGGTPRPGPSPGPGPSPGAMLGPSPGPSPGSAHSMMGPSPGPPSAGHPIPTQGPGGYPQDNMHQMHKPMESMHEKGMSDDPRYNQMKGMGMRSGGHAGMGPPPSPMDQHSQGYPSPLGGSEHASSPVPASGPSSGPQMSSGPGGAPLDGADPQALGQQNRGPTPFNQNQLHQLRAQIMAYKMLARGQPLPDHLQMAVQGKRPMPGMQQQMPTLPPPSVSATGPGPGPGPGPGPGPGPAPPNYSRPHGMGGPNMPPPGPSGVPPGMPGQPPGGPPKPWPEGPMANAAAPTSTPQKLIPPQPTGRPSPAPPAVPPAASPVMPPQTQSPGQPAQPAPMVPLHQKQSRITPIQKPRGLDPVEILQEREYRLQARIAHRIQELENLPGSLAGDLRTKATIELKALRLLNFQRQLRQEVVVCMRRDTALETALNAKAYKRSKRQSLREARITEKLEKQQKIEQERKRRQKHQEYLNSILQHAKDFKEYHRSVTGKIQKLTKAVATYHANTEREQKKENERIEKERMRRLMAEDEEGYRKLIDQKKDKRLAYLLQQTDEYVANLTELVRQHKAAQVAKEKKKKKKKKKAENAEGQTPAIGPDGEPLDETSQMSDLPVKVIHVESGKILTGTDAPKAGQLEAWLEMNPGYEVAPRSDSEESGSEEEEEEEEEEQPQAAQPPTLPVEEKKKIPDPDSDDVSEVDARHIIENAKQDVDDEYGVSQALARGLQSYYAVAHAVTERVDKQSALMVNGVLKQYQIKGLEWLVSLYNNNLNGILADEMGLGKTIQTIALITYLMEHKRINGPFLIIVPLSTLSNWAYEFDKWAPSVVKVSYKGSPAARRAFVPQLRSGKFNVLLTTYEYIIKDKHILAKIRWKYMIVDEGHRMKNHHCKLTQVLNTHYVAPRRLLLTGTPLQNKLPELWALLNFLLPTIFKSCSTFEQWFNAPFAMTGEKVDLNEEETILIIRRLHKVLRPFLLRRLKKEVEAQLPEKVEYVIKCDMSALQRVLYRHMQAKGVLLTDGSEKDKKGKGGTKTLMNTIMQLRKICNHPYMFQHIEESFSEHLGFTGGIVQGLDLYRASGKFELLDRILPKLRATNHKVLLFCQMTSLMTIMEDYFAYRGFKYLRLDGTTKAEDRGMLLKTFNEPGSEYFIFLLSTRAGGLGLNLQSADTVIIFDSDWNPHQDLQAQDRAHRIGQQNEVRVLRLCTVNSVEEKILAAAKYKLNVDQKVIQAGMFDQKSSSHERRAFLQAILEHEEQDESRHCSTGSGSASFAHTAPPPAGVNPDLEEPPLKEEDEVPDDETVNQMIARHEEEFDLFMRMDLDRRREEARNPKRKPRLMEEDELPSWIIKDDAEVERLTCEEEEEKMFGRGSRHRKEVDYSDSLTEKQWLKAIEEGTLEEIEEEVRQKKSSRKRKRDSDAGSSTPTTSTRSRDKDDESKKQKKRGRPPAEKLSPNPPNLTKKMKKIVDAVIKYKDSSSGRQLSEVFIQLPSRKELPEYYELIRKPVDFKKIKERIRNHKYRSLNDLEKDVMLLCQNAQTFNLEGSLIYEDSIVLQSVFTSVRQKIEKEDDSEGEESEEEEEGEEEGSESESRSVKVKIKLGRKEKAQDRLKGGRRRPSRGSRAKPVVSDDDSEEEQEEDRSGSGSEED
Summary of the method: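 Protein levels quantified by LI-COR Western blot (beta-actin loading control) in RIPA lysates of MV4-11 cells after 24 h compound exposure. Degradation reported as DC50, Dmax % at 24 h and SMARCA2 vs SMARCA4 selectivity, each binned into letter codes.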

SMARCA2 [2] = biological target: T1, SMARCA2; test: MSD SMARCA2 degradation in A549 cell line; conditions: for Dmax: A549, A549 cells; for Dmax / DC50: 24 h; for DC50 / SMARCA2 MSD A549 degradation 24 h: Average Dmax %: A549 cells; for DC50: read-out: SMARCA2 MSD A549 degradation 24 h: Average external-Abs DC50
Summary of the method: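 SMARCA2 protein remaining after 24 h exposure of A549 cells (top concentration 1000 nM, 3-fold dilutions) was measured by MSD electrochemiluminescence immunoassay of cell lysates. Results are given as binned DC50 and maximal degradation (Dmax) codes.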

| Compound | Dmax (SMARCA2 [1]) | DC50 (SMARCA2 [1]) | Selectivity in MV411 (SMARCA2 [1]) | Dmax (SMARCA4) | DC50 (SMARCA4) | Dmax (SMARCA2 [2]) | DC50 (SMARCA2 [2]) | SMARCA2 MSD MV411 degradation 24 h: average Dmax % (SMARCA2 [1]) | SMARCA4 MSD MV411 degradation 24 h: average Dmax % (SMARCA4) | SMARCA2 MSD A549 degradation 24 h: Average Dmax % (SMARCA2 [2]) |
| --- | --- | --- | --- | --- | --- | --- | --- | --- | --- | --- |
| C#Cc1ccc([C@H](C)NC(=O)[C@@H]2C[C@@H](O)CN2C(=O)[C@@H](NC(=O)[C@H]2CCC3(CC2)C[C@H](N2CCN(c4cnc(N5CCN6c7cc(-c8ccccc8O)nnc7NC[C@H]6C5)nc4)CC2)C3)C(C)(C)C)cc1 (single isomer, unassigned) [I-234] |  | 10 to 100 nM | C (C (10-100 fold)) |  | > 100 nM |  | 50 to 100 nM | B (B (>70-90% degradation)) | C (C (50-70% degradation)) | A (A (>90% degradation)) |
| C#Cc1ccc2c(c1)OCC[C@@H]2NC(=O)[C@@H]1C[C@@H](O)CN1C(=O)[C@@H](NC(=O)N1CC2(CC(N3CCC(c4cnc(N5CCc6[nH]c7nnc(-c8ccccc8O)cc7c6[C@H]5C)nc4)CC3)C2)C1)C(C)(C)C (single isomer, unassigned) [I-235] | < 50% | > 100 nM | D (D (<10 fold)) | < 50% | > 100 nM | 50 to 70% | > 100 nM |  |  |  |
| C#Cc1ccc2c(c1)OCC[C@H]2NC(=O)[C@@H]1C[C@@H](O)CN1C(=O)[C@@H](NC(=O)N1CC2(CC(N3CCC(c4cnc(N5CCc6[nH]c7nnc(-c8ccccc8O)cc7c6[C@H]5C)nc4)CC3)C2)C1)C(C)(C)C (single isomer, unassigned) [I-236] | 50 to 70% | > 100 nM | D (D (<10 fold)) | < 50% | > 100 nM | 70 to 90% | > 100 nM |  |  |  |
| C#Cc1ccc(CNC(=O)[C@@H]2C[C@@H](O)CN2C(=O)[C@@H](NC(=O)[C@H]2CCC3(CC2)C[C@H](N2CCC(N4CC5(CC(N6CCN7c8cc(-c9ccccc9O)nnc8NC[C@H]7C6)C5)C4)CC2)C3)C(C)(C)C)c(Cl)c1 (single isomer, unassigned) [I-238] |  | 10 to 100 nM | C (C (10-100 fold)) |  | > 100 nM |  | > 100 nM | B (B (>70-90% degradation)) | D (D (<50% degradation)) | A (A (>90% degradation)) |
| C#Cc1ccc(CNC(=O)[C@@H]2C[C@@H](O)CN2C(=O)[C@@H](NC(=O)CCCN2CCC(N3CC4(CC(N5CCN6c7cc(-c8ccccc8O)nnc7NC[C@H]6C5)C4)C3)CC2)C(C)(C)C)cc1 (single isomer, unassigned) [I-244] | > 90% | 10 to 100 nM | C (C (10-100 fold)) | 50 to 70% | > 100 nM | > 90% | > 100 nM |  |  |  |
| C#Cc1ccc(CNC(=O)[C@@H]2C[C@@H](O)CN2C(=O)[C@@H](NC(=O)[C@H]2CCC3(CC2)C[C@H](N2CCC(N(C)CCN4CCN5c6cc(-c7ccccc7O)nnc6NC[C@H]5C4)CC2)C3)C(C)(C)C)cc1 (single isomer, unassigned) [I-246] | 70 to 90% | 10 to 100 nM | C (C (10-100 fold)) | 50 to 70% | > 100 nM | > 90% | > 100 nM |  |  |  |
| C#Cc1ccc(CNC(=O)[C@@H]2C[C@@H](O)CN2C(=O)[C@H](NC(=O)[C@H]2CCC3(CC2)C[C@H](N2CCC(c4cnc(N5CCN6c7cc(-c8ccccc8O)nnc7NC[C@H]6C5)nc4)CC2)C3)C(C)(C)CCO)cc1 (single isomer, unassigned) [I-248] | < 50% | > 100 nM | D (D (<10 fold)) | < 50% | > 100 nM | < 50% | > 100 nM |  |  |  |
| C#Cc1ccc(CNC(=O)[C@@H]2C[C@@H](O)CN2C(=O)[C@@H](NC(=O)N2CCC[C@@H](CN3CCC(N4CCC(N5CCN6c7cc(-c8ccccc8O)nnc7NC[C@H]6C5)CC4)CC3)C2)C(C)(C)C)cc1 (single isomer, unassigned) [I-253] | < 50% | > 100 nM | D (D (<10 fold)) | < 50% | > 100 nM | < 50% | > 100 nM |  |  |  |
| C#Cc1ccc(CNC(=O)[C@@H]2C[C@@H](O)CN2C(=O)[C@@H](NC(=O)N2CC3(CC(N4CCC(c5cnc(N6CCc7[nH]c8nnc(-c9ccccc9O)cc8c7[C@H]6C)nc5)CC4)C3)C2)C(C)(C)CCOCC(=O)O)cc1 (single isomer, unassigned) [I-262] | 70 to 90% | 10 to 100 nM | C (C (10-100 fold)) | 50 to 70% | > 100 nM | 50 to 70% | > 100 nM |  |  |  |
| C#Cc1ccc(CNC(=O)[C@@H]2C[C@@H](O)CN2C(=O)[C@H](NC(=O)N2CC3(CC(N4CCC(c5cnc(N6CCc7[nH]c8nnc(-c9ccccc9O)cc8c7[C@H]6C)nc5)CC4)C3)C2)C(C)(C)CCOCC(=O)O)cc1 (single isomer, unassigned) [I-263] | < 50% | > 100 nM | C (C (10-100 fold)) | < 50% | > 100 nM | < 50% | > 100 nM |  |  |  |
| C#Cc1ccc([C@H](C)NC(=O)[C@@H]2C[C@@H](O)CN2C(=O)[C@H](c2cc(OCCN3CCN4c5cc(-c6ccccc6O)nnc5NC[C@H]4C3)no2)C(C)C)cc1 (single isomer, unassigned) [I-272] | 50 to 70% | > 100 nM | C (C (10-100 fold)) | < 50% | > 100 nM | 50 to 70% | > 100 nM |  |  |  |
| C#Cc1ccc(CNC(=O)[C@@H]2C[C@@H](O)CN2C(=O)[C@@H](NC(=O)[C@H]2CC3(CC[C@H](N4CCN(c5cnc(N6CCc7[nH]c8nnc(-c9ccccc9O)cc8c7[C@H]6C)nc5)CC4)CC3)C2)C(C)(C)C)cc1 (single isomer, unassigned) [I-285] | 70 to 90% | 10 to 100 nM | C (C (10-100 fold)) | 70 to 90% | > 100 nM | > 90% | 10 to 50 nM |  |  |  |

Next, values leading:

| Dmax (SMARCA2 [1]) | DC50 (SMARCA2 [1]) | Selectivity in MV411 (SMARCA2 [1]) | Dmax (SMARCA4) | DC50 (SMARCA4) | Dmax (SMARCA2 [2]) | DC50 (SMARCA2 [2]) | SMARCA2 MSD MV411 degradation 24 h: average Dmax % (SMARCA2 [1]) | SMARCA4 MSD MV411 degradation 24 h: average Dmax % (SMARCA4) | SMARCA2 MSD A549 degradation 24 h: Average Dmax % (SMARCA2 [2]) | Compound |
| --- | --- | --- | --- | --- | --- | --- | --- | --- | --- | --- |
| 70 to 90% | 1 to 10 nM | C (C (10-100 fold)) | 50 to 70% | > 100 nM | > 90% | 10 to 50 nM |  |  |  | C#Cc1ccc([C@H](C)NC(=O)[C@@H]2C[C@@H](O)CN2C(=O)[C@@H](NC(=O)[C@H]2CCC3(CC2)C[C@H](N2CCN(c4cnc(N5CCN6c7cc(-c8ccccc8O)nnc7NC[C@H]6C5)nc4)CC2)C3)C(C)(C)C)cc1 (single isomer, unassigned) [I-233] |
|  | 1 to 10 nM | B (B (>100-500 fold)) |  | > 100 nM |  | 50 to 100 nM | B (B (>70-90% degradation)) | D (D (<50% degradation)) | A (A (>90% degradation)) | C#Cc1ccc(CNC(=O)[C@@H]2C[C@@H](O)CN2C(=O)[C@@H](NC(=O)[C@H]2CCC3(CC2)C[C@H](N2CCC(N4CC5(CC(N6CCN7c8cc(-c9ccccc9O)nnc8NC[C@H]7C6)C5)C4)CC2)C3)C(C)(C)C)cc1 (single isomer, unassigned) [I-237] |
| > 90% | 1 to 10 nM | D (D (<10 fold)) | > 90% | 10 to 100 nM | > 90% | > 100 nM |  |  |  | C#Cc1ccc(CNC(=O)[C@@H]2C[C@@H](O)CN2C(=O)[C@@H](NC(=O)[C@H]2CC3(C2)C[C@H](N2CCN(C(=O)CN4CCN5c6cc(-c7ccccc7O)nnc6NC[C@H]5C4)CC2)C3)C(C)(C)C)cc1 (single isomer, unassigned) [I-239] |
| > 90% | 1 to 10 nM | C (C (10-100 fold)) | 70 to 90% | 10 to 100 nM | > 90% | 50 to 100 nM |  |  |  | C#Cc1ccc(CNC(=O)[C@@H]2C[C@@H](O)CN2C(=O)[C@@H](NC(=O)[C@H]2CC3(C2)C[C@H](N2CCC(N4CCC(N5CCN6c7cc(-c8ccccc8O)nnc7NC[C@H]6C5)CC4)CC2)C3)C(C)(C)C)c(O)c1 (single isomer, unassigned) [I-241] |
|  | 1 to 10 nM | C (C (10-100 fold)) |  | > 100 nM |  | 50 to 100 nM | B (B (>70-90% degradation)) | C (C (50-70% degradation)) | A (A (>90% degradation)) | C#Cc1ccc(CNC(=O)[C@@H]2C[C@@H](O)CN2C(=O)[C@@H](NC(=O)[C@H]2CCC3(CC2)C[C@H](N2CCC(N(C)CCN4CCN5c6cc(-c7ccccc7O)nnc6NC[C@H]5C4)CC2)C3)C(C)(C)C)cc1 (single isomer, unassigned) [I-247] |
| > 90% | 1 to 10 nM | C (C (10-100 fold)) | 50 to 70% | > 100 nM | > 90% | > 100 nM |  |  |  | C#Cc1ccc([C@H](C)NC(=O)[C@@H]2C[C@@H](O)CN2C(=O)[C@@H](c2cc(OCCN3CCN4c5cc(-c6ccccc6O)nnc5NC[C@H]4C3)no2)C(C)C)cc1 (single isomer, unassigned) [I-273] |
